Measured values as given in patent publication US7601687B2, “Mechanism for identifying drugs for the treatment of type II diabetes” (BioCrine AB, priority 2006, dated 2009).

Columns and labels:
[1] = test system: βGK mRNA; experiment: βGK mRNA steady-state levels (comparative RT-PCR) in cultured pancreatic islets / insulin-producing cells; assay type: cell-based, rat; conditions: 50 mM KCl or 1 μM glibenclamide for 5 min at substimulatory glucose
Description: (§1) Insulin-producing HIT-T15 cells were obtained from ATCC. HIT cells were reported to show glucose responsiveness at subphysiological concentrations between 0.1 and 2 mM (Sharma et al., 1995). HIT cells were grown in RPMI 1640 medium supplemented with 100 units/ml penicillin, 100 μg/ml streptomycin, 2 mM glutamine and 10% fetal calf serum at 5% CO2 and 37° C. Pancreatic islets were isolated from normally fed male Wistar rats and from mice by collagenase digestion. Isolated islets were incubated overnight at 5% CO2 and 37° C. in RPMI 1640 medium, supplemented as described above. Transfection of HIT-T15 and islet cells was performed overnight by the lipofectamine technique in RPMI 1640 medium, without serum and antibiotics. For on-line monitoring, cells were grown and transfected on 24-mm glass coverslips. Following transfection, HIT cells were cultured for 12-18 h in RPMI 1640 medium containing 0.1 mM glucose, 10% fetal calf serum and supplemented as above. Before stimulation, islets and islet cells were incubated for 2 h in RPMI 1640 medium, supplemented as above but containing 3 mM glucose. All expression constructs were prepared using the Qiagen Plasmid Maxi Kit (Qiagen), except those used to produce the adenoviruses which where purified by ultracentrifugation via a CsCI-gradient (as described in Sambrook et al, 1989).
(§2) All experiments were performed in RPMI 1640 medium, supplemented as above. Protein kinase inhibitors, antibodies or nifedipine were added to the culture medium 30 min prior to stimulation and were kept in the medium throughout stimulation. After stimulation islets, islet cells and HIT cells were cultured further at substimulatory glucose concentrations (0.1 mM for HIT cells and 3 mM for islets and islet cells). For RNA-analysis, islets and cells were harvested 60 min after start of stimulation, if not indicated otherwise. For analysis of protein kinase activities or tyrosine phosphorylation, cells were harvested immediately following stimulation.
RNA Analysis Levels of βGK mRNA were analyzed by RNase-protection assays and comparative RT-PCR. […] Quantification of the protected complexes was performed by phosphorimaging. […] Levels of μGK mRNA were analyzed by RT-PCR using primers 5′-[…]-3′(SEQ ID NO: 1) and 5′-[…]-3′(SEQ ID NO: 2) for characterizing μGK mRNA in HIT cells and primers 5′-[…]-3′(SEQ ID NO: 3) and 5′-[…]-3′(SEQ ID NO: 4) for μGK mRNA in rat and mouse pancreatic islets and islet cells. Levels of μ-actin mRNA were analyzed by RT-PCR using primers 5′-[…]-3′(SEQ ID NO: 5) and 5′-[…]-3′(SEQ ID NO: 6). […] PCR products were separated on a 6% polyacrylamide sequencing gel and analyzed by phosphorimaging. […]

[2] = test system: rat βGK promoter; experiment: On-line monitoring of βGK promoter-driven GFP expression (prβGK.GFP) in transfected HIT-T15 cells, islet cells and islets; assay type: cell-based, hamster (HIT-T15), rat (islet cells); conditions: for βGK promoter-driven GFP expression upon secretagogue stimulation: 50 mM KCl or 1 μM glibenclamide for 5 min at substimulatory glucose; for effect of inhibitor on insulin-stimulated βGK transcription / promoter activity: 5 mU/ml insulin 5 min, 150 nM BIM, 20 μM PD98059, 10 μM PD169316, 100 μM HNMPA-(AM)3, 400 nM AC, FIG. 5; for effect of inhibitor on insulin-stimulated βGK transcription / promoter activity / effect of inhibitor on insulin-stimulated βGK promoter activity (GFP) in the same co-transfected cell: 25 μM LY294002, 10 nM rapamycin; for effect of inhibitor on insulin-stimulated βGK promoter activity (GFP) in the same co-transfected cell: 5 mU/ml insulin, 400 nM AC, 100 μM HNMPA-(AM)3
From the text: Construction of prIns1.GFP has been described earlier (Leibiger et al., 1998a). Vector prIns1.DsRed was generated by exchanging the EGFP-expression cassette versus the DsRed-expression cassette obtained from pDsRed1-1 (Clontech). Plasmid prβGK.GFP (i.e. prβGK-278.GFP) was generated by exchanging the CAT-SV40pA-expression cassette of prβGK-278.CAT (Leibiger et al., 1994a) versus the EGFP-bGHpA-expression cassette obtained from pRcCMVI.GFP (Moede et al., 1999). […] All vector constructions were verified by DNA sequence analysis. […] Expression constructs pCMV5.PKBα, pCMV5.PKBαΔ308/437, pCMV5.PDK1 and pCMV5.PDK1-antisense were kindly provided by Drs. P. Cohen and D. R. Alessi (MRC Phosphorylation Unit, University of Dundee, UK).
as §1, with “HIT” for “Insulin-producing HIT-T15 cells were obtained from ATCC. HIT”
Islets were transduced with Ad.rβGK.GFP or Ad.CMV.GFP by incubating 50 islets with 1 ml virus-containing medium for 90 min at 37° C. and 5% CO2. Following transduction, islets were washed 3 times with PBS and cultured further in RPMI 1640 medium. Islets were stimulated 40-72 h after transduction, as described below and analyzed by laser-scanning confocal microscopy.
as §2
(§3) Detection of fluorescence by digital imaging fluorescence microscopy was performed as described previously (Leibiger et al., 1998a; Leibiger et al., 1998b). Briefly, transfected cells were grown on 24-mm glass coverslips. After stimulation the coverslips were placed into a perifusion chamber which was mounted on an inverted microscope (Zeiss Axiovert 135TV). Temperature was kept at 37° C. and the cells were perfused with RPMI 1640 medium. The objective lens used was a Zeiss-Fluar ×40/1.30 oil Imm Korr. Fluorescence imaging was performed with a cooled charged-coupled device camera (CH250 with KAF 1400, Photometrics, Tucson, Ariz.) connected to an imaging system (Inovision) with fluorescence excitation from a SPEX fluorolog-2 CM1T11I spectrofluorometer (Spex Industries).

[3] = test system: rat insulin-I gene promoter; experiment: On-line monitoring of insulin promoter-driven DsRed/GFP expression (prIns1.DsRed) in transfected HIT-T15 cells and islet cells; assay type: cell-based, hamster (HIT-T15), rat (islet cells)
From the text: Construction of prIns1.GFP has been described earlier (Leibiger et al., 1998a). Vector prIns1.DsRed was generated by exchanging the EGFP-expression cassette versus the DsRed-expression cassette obtained from pDsRed1-1 (Clontech). Plasmid prβGK.GFP (i.e. prβGK-278.GFP) was generated by exchanging the CAT-SV40pA-expression cassette of prβGK-278.CAT (Leibiger et al., 1994a) versus the EGFP-bGHpA-expression cassette obtained from pRcCMVI.GFP (Moede et al., 1999). […] All vector constructions were verified by DNA sequence analysis. Constructs for expression of the human Insulin Receptor A and B types, pCMVHIR(A) and pCMVHIR(B) and the control plasmid pCMVstop were kindly provided by Dr. A. Ullrich (Max-Planck-Institute for Biochemistry, Martinsried, Germany). Expression constructs pCMV5.PKBα, pCMV5.PKBαΔ308/437, pCMV5.PDK1 and pCMV5.PDK1-antisense were kindly provided by Drs. P. Cohen and D. R. Alessi (MRC Phosphorylation Unit, University of Dundee, UK).
as §1, §2
as §3, with “Industries). The following filter-settings were used: for GFPs65T: excitation at 485 nm, a 505 nm dicroic mirror and an emission band-pass filter of 500-530 nm; for DsRed: excitation at 558 nm, a 565 nm dicroic mirror and a 580 nm long-pass filter for emission […]” for “Industries).”

[4] = co-transfected HIT cells, 5 mU insulin/ml (FIG. 9A)
[5] = co-transfected HIT cells, 5 mU insulin/ml (FIG. 9B)
[6] = 2.6 nM IGF-I, insulin-producing cells

[Cl-].[K+] [KCI, KCl]
βGK mRNA steady state levels upon secretagogue stimulation [1]: increase
βGK promoter-driven GFP expression upon secretagogue stimulation [2]: elevation

O=c1cc(N2CCOCC2)oc2c(-c3ccccc3)cccc12 [LY294002]
effect of inhibitor on insulin-stimulated βGK transcription / promoter activity [2]: not inhibited
effect of inhibitor on insulin-stimulated βGK promoter activity (GFP) in the same co-transfected cell [2]: no effect
concentration necessary to completely abolish insulin-stimulated βGK promoter activity [2, 4]: 100 µM
concentration that blocked insulin-stimulated insulin promoter activity [3, 4]: 25 µM

COc1cccc(-c2cc(=O)c3ccccc3o2)c1N [PD98059]
effect of inhibitor on insulin-stimulated βGK transcription / promoter activity [2]: not sensitive

CN(C)CCCn1cc(C2=C(c3c[nH]c4ccccc34)C(=O)NC2=O)c2ccccc21 [bisindolylmalemide I]
effect of inhibitor on insulin-stimulated βGK transcription / promoter activity [2]: not sensitive

COc1ccc(Cl)cc1C(=O)NCCc1ccc(S(=O)(=O)NC(=O)NC2CCCCC2)cc1 [glibenclamide]
βGK mRNA steady state levels upon secretagogue stimulation [1]: increase
βGK promoter-driven GFP expression upon secretagogue stimulation [2]: elevation

CO[C@H]1C[C@@H]2CC[C@@H](C)[C@@](O)(O2)C(=O)C(=O)N2CCCC[C@H]2C(=O)O[C@H]([C@H](C)C[C@@H]2CC[C@@H](O)[C@H](OC)C2)CC(=O)[C@H](C)/C=C(\C)[C@@H](O)[C@@H](OC)C(=O)[C@H](C)C[C@H](C)/C=C/C=C/C=C/1C [rapamycin]
effect of inhibitor on insulin-stimulated βGK transcription / promoter activity [2]: not inhibited
effect of inhibitor on insulin-stimulated βGK promoter activity (GFP) in the same co-transfected cell [2]: no effect

COC[C@H]1OC(=O)c2coc3c2[C@@]1(C)C1=C(C3=O)[C@@H]2CCC(=O)[C@@]2(C)C[C@H]1OC(C)=O [wortmannin]
concentration necessary to block insulin-stimulated βGK promoter activity [2, 5]: 150 nM
concentration sufficient to inhibit insulin-stimulated insulin promoter activity [3, 5]: 50 nM

IGF-I
βGK promoter-driven reporter gene expression upon IGF-I stimulation [2, 6]: did not activate
insulin promoter-driven reporter gene expression upon IGF-I stimulation [3, 6]: did not activate
